Experimental data reported in patent US20240360415A1, “MUSCLE CELLS DIFFERENTIATED FROM PLURIPOTENT CELLS, METHODS OF PRODUCING SAME AND USE THEREOF” (ALEPH FARMS LTD., priority 2021, published 2024).

Test system: Bovine pluripotent stem cells (PSCs)
Assay: Immunofluorescence staining of Myosin heavy chain (MF-20 antibody) after total of 11 days of differentiation
Format: cell-based
Conditions: 3D suspension 4 days with factors (CHIR 10 μM; Activin A 20 ng/ml or TGFβ 2 ng/ml), then 7 days 2D serum-free without factors; FIG. 3A-3C
Experimental: Bovine skeletal muscle cells in 2D culture were subjected to immunofluorescence analysis as following: The cells were fixed using 4% Paraformaldehyde (PFA; […] Nuclei were stained using […] of DAPI (Sigma). The imaging was performed using EVOS FL Auto 2 Fluorescent Microscopy (ThermoFisher). Bovine pluripotent stem cells (PSCs) were grown in 2D and/or 3D culture. […] The suspension culture conditions (“3D culture conditions”) include ultra-low adherent (ULA) 6-well plate (Corning) placed at 38.5° C. under 5% CO2 and humidity of >75% under rotation. Medium was refreshed using the skeletal Muscle Precursor medium (without RI) and the formed aggregates were allowed to differentiate for a total of 4 days. The aggregates comprising skeletal muscle committed cells were collected and seeded on in a tissue culture Vitronectin (0.005 mg/ml) pre-coated plate (“2D conditions”) in serum free growth medium. […] Medium was refreshed using the skeletal Muscle Precursor medium (without RI) and the formed aggregates were allowed to differentiate for a total of 4 days. After 4 days, the cells comprising skeletal muscle committed cells were collected and seeded in a 2D culture conditions as described for the aggregate obtained from 3D culture conditions described above.

Cc1cnc(-c2cnc(NCCNc3ccc(C#N)cn3)nc2-c2ccc(Cl)cc2Cl)[nH]1 [CHIR-99021, 6-[[2-[[4-(2,4-Dichlorophenyl)-5-(5-methyl-1H-imidazol-2-yl)-2-pyrimidinyl]amino]ethyl]amino]-3-pyridinecarbonitrile]
Myosin heavy chain positive (skeletal muscle) cells by immunofluorescence: no Myosin positive cells
